EP4653437A2 (Innovo Therapeutics Inc., priority 2023, dated 2024)

Legend:
[1] = biological target: T1, human 15-PGDH (Homo sapiens, UniProt P15428); assay: Evaluation of 15-PGDH inhibitory activity (fluorescence enzyme assay, NAD+/PGE2); assay type: biochemical; details: human 15-PGDH enzyme, fluorescence Vmax
T1 construct: purchased R&D System 5660-DH
T1 sequence (P15428 1-266): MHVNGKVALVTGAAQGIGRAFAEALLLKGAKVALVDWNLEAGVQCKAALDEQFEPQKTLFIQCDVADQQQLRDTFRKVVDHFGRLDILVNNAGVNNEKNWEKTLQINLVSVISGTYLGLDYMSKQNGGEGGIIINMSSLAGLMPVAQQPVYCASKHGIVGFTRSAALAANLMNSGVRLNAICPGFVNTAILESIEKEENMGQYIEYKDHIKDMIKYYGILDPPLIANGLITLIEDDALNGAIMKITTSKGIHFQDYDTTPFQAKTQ
Experimental: 15-PGDH inhibition activity of Example compounds was measured as follows. 6.7 ng of human 15-PGDH (R&D System# 5660-DH) enzyme (10 µL) was added to a black 96 well plate, 60 µL of buffer (50 mM Tris-HCl, pH 7.5, 0.01% Tween 20) was added, and 10 µL of 200 µM β-Nicotinamide adenine dinucleotide sodium salt (Sigma, Cat# N0632-5G) was added. 10 µL of (10x) compound solution in DMSO was added and reacted for 10 minutes at room temperature.

[2] = system: A549 cells; assay: Measurement of PGE2-increasing activity in A549 cells (IL-1β stimulated, PGE2 quantified in supernatant); assay type: cell-based; details: for fold induction at 1 µM: Homo sapiens, 24 h, concentration of 1 µM of each compound, IL-1β treated A549 cells, read-out: Increased PGE2 production in A549 cells
How it was run: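 PGE2 secreted into the supernatant was measured by immunoassay 24 h after treatment. Before treatment, A549 cells were cultured 24 h in 10% FBS F12K, washed, and placed in serum-free medium containing compound (DMSO 0.1% final) plus or minus IL-1β, incubated at 37 °C, 5% CO2.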

Compound	IC50 [1] [nM]	fold induction at 1 µM [2]	Increased PGE2 production in A549 cells [2]
O=C(c1ccc(-c2cccc3c(C(=O)N4CCCCC4)cnn23)cn1)N1CCNCC1 [Example 82, piperazin-1-yl(5-(3-(piperidine-1-carbonyl)pyrazolo[1,5-a]pyridin-7-yl)pyridin-2-yl)methanone]	≤ 100	< 1.5	–
CN1CCN(C(=O)c2ccc(-c3cccc4c(C(=O)N5CCCCC5)cnn34)cn2)CC1 [Example 83, (4-methylpiperazin-1-yl)(5-(3-(piperidine-1-carbonyl)pyrazolo[1,5-a]pyridin-7-yl)pyridin-2-yl)methanone]	≤ 100	> 1.5	–
CC(C)N1CCN(C(=O)c2ccc(-c3cccc4c(C(=O)N5CCCCC5)cnn34)cn2)CC1 [Example 84, (4-isopropylpiperazin-1-yl)(5-(3-(piperidine-1-carbonyl)pyrazolo[1,5-a]pyridin-7-yl)pyridin-2-yl)methanone]	≤ 100	> 1.5	–
N#CCCNC(=O)c1ccc(-c2cccc3c(C(=O)N4CCCCC4)cnn23)cn1 [Example 85, N-(2-cyanoethyl)-5-(3-(piperidine-1-carbonyl)pyrazolo[1,5-a]pyridin-7-yl)picolinamide]	≤ 100	> 1.5	–
N#CCNC(=O)c1ccc(-c2cccc3c(C(=O)N4CCCCC4)cnn23)cn1 [Example 86, N-(cyanomethyl)-5-(3-(piperidine-1-carbonyl)pyrazolo[1,5-a]pyridin-7-yl)picolinamide]	≤ 100	> 1.5	–
O=C(Nc1cccnc1)c1ccc(-c2cccc3c(C(=O)N4CCCCC4)cnn23)cn1 [Example 87, 5-(3-(piperidine-1-carbonyl)pyrazolo[1,5-a]pyridin-7-yl)-N-(pyridin-3-yl)picolinamide]	≤ 100	< 1.5	–
O=C(Nc1ccncc1)c1ccc(-c2cccc3c(C(=O)N4CCCCC4)cnn23)cn1 [Example 88, 5-(3-(piperidine-1-carbonyl)pyrazolo[1,5-a]pyridin-7-yl)-N-(pyridin-4-yl)picolinamide]	≤ 100	> 1.5	–
O=C(NCc1ccon1)c1ccc(-c2cccc3c(C(=O)N4CCCCC4)cnn23)cn1 [Example 89, N-(isoxazol-3-ylmethyl)-5-(3-(piperidine-1-carbonyl)pyrazolo[1,5-a]pyridin-7-yl)picolinamide]	≤ 100	> 1.5	–
N#CCCNC(=O)c1ccc(-c2cccc3c(C(=O)N4CCCCC4)cnn23)o1 [Example 90, N-(2-cyanoethyl)-5-(3-(piperidine-1-carbonyl)pyrazolo[1,5-a]pyridin-7-yl)furan-2-carboxamide]	≤ 100	> 1.5	–
COCCC(=O)Nc1cccc(-c2cccc3c(C(=O)N4CCCCC4)cnn23)c1 [Example 91, 3-methoxy-N-(3-(3-(piperidine-1-carbonyl)pyrazolo[1,5-a]pyridin-7-yl)phenyl)propanamide]	≤ 100	> 1.5	–
NC(=O)Nc1cccc(-c2cccc3c(C(=O)N4CCCCC4)cnn23)c1 [Example 92, 1-(3-(3-(piperidine-1-carbonyl)pyrazolo[1,5-a]pyridin-7-yl)phenyl)urea]	≤ 100	> 1.5	–
CN1CCC(C(=O)Nc2cccc(-c3cccc4c(C(=O)N5CCCCC5)cnn34)c2)CC1 [Example 93, 1-methyl-N-(3-(3-(piperidine-1-carbonyl)pyrazolo[1,5-a]pyridin-7-yl)phenyl)piperidine-4-carboxamide]	≤ 100	> 1.5	–
O=C(Nc1cccc(-c2cccc3c(C(=O)N4CCCCC4)cnn23)c1)C1CC1 [Example 94, N-(3-(3-(piperidine-1-carbonyl)pyrazolo[1,5-a]pyridin-7-yl)phenyl)cyclopropanecarboxamide]	≤ 100	> 1.5	–
O=C(Nc1cccc(-c2cccc3c(C(=O)N4CCCCC4)cnn23)c1)c1cccnc1 [Example 95, N-(3-(3-(piperidine-1-carbonyl)pyrazolo[1,5-a]pyridin-7-yl)phenyl)nicotinamide]	≤ 100	> 1.5	–
O=C(Nc1cccc(-c2cccc3c(C(=O)N4CCCCC4)cnn23)c1)C1CCCCC1 [Example 96, N-(3-(3-(piperidine-1-carbonyl)pyrazolo[1,5-a]pyridin-7-yl)phenyl)cyclohexanecarboxamide]	≤ 100	< 1.5	–
COCCC(=O)Nc1ccc(-c2cccc3c(C(=O)N4CCCCC4)cnn23)cc1 [Example 98, 3-methoxy-N-(4-(3-(piperidine-1-carbonyl)pyrazolo[1,5-a]pyridin-7-yl)phenyl)propanamide]	≤ 100	> 1.5	–

Compound	IC50 [1] [nM]	fold induction at 1 µM [2]	Increased PGE2 production in A549 cells [2]
CN1CCC(C(=O)Nc2ccc(-c3cccc4c(C(=O)N5CCCCC5)cnn34)cc2)CC1 [Example 99, 1-methyl-N-(4-(3-(piperidine-1-carbonyl)pyrazolo[1,5-a]pyridin-7-yl)phenyl)piperidine-4-carboxamide]	≤ 100	< 1.5	–
O=C(Nc1ccc(-c2cccc3c(C(=O)N4CCCCC4)cnn23)cc1)C1CC1 [Example 100, N-(4-(3-(piperidine-1-carbonyl)pyrazolo[1,5-a]pyridin-7-yl)phenyl)cyclopropanecarboxamide]	≤ 100	> 1.5	–
O=C(Nc1ccc(-c2cccc3c(C(=O)N4CCCCC4)cnn23)cc1)c1cccnc1 [Example 101, N-(4-(3-(piperidine-1-carbonyl)pyrazolo[1,5-a]pyridin-7-yl)phenyl)nicotinamide]	≤ 100	> 1.5	–
O=C(Nc1ccc(-c2cccc3c(C(=O)N4CCCCC4)cnn23)cc1)C1CCCCC1 [Example 102, N-(4-(3-(piperidine-1-carbonyl)pyrazolo[1,5-a]pyridin-7-yl)phenyl)cyclohexanecarboxamide]	≤ 100	< 1.5	–
COCCC(=O)Nc1ccc(-c2cccc3c(C(=O)N4CCCCC4)cnn23)cn1 [Example 103, 3-methoxy-N-(5-(3-(piperidine-1-carbonyl)pyrazolo[1,5-a]pyridin-7-yl)pyridin-2-yl)propanamide]	≤ 100	< 1.5	–
CN(C)CC(=O)Nc1ccc(-c2cccc3c(C(=O)N4CCCCC4)cnn23)cn1 [Example 104, 2-(dimethylamino)-N-(5-(3-(piperidine-1-carbonyl)pyrazolo[1,5-a]pyridin-7-yl)pyridin-2-yl)acetamide]	≤ 100	> 1.5	–
O=C1CC(C(=O)Nc2ccc(-c3cccc4c(C(=O)N5CCCCC5)cnn34)cn2)CCN1 (centres unmarked) [Example 105, 2-oxo-N-(5-(3-(piperidine-1-carbonyl)pyrazolo[1,5-a]pyridin-7-yl)pyridin-2-yl)piperidine-4-carboxamide]	≤ 100	–	++ (key: +: 0 < PGE2 increasing ability < 1.5; ++: PGE2 increasing ability ≥ 1.5)
COCCCNc1ccc(-c2cccc3c(C(=O)N4CCCCC4)cnn23)cn1 [Example 107, (7-(6-((3-methoxypropyl)amino)pyridin-3-yl)pyrazolo[1,5-a]pyridin-3-yl)(piperidin-1-yl)methanone]	≤ 100	> 1.5	–
O=C(c1cnn2c(-c3ccc(N4CCOCC4)nc3)cccc12)N1CCCCC1 [Example 108, (7-(6-morpholinopyridin-3-yl)pyrazolo[1,5-a]pyridin-3-yl)(piperidin-1-yl)methanone]	≤ 100	> 1.5	–
CC(C)Nc1ccc(-c2cccc3c(C(=O)N4CCCCC4)cnn23)cn1 [Example 109, (7-(6-(isopropylamino)pyridin-3-yl)pyrazolo[1,5-a]pyridin-3-yl)(piperidin-1-yl)methanone]	≤ 100	> 1.5	–
O=C(c1cnn2c(-c3ccc(N4CCCCC4)nc3)cccc12)N1CCCCC1 [Example 110, piperidin-1-yl(7-(6-(piperidin-1-yl)pyridin-3-yl)pyrazolo[1,5-a]pyridin-3-yl)methanone]	≤ 100	< 1.5	–
CN1CCN(c2ccc(-c3cccc4c(C(=O)N5CCCCC5)cnn34)cn2)CC1 [Example 111, (7-(6-(4-methylpiperazin-1-yl)pyridin-3-yl)pyrazolo[1,5-a]pyridin-3-yl)(piperidin-1-yl)methanone]	≤ 100	> 1.5	–
CS(=O)(=O)Nc1ccc(-c2cccc3c(C(=O)N4CCCCC4)cnn23)cn1 [Example 112, N-(5-(3-(piperidine-1-carbonyl)pyrazolo[1,5-a]pyridin-7-yl)pyridin-2-yl)methanesulfonamide]	≤ 100	> 1.5	–
O=C(c1cnn2c(-c3cccc(-c4nnn[nH]4)c3)cccc12)N1CCCCC1 [Example 113, (7-(3-(1H-tetrazol-5-yl)phenyl)pyrazolo[1,5-a]pyridin-3-yl)(piperidin-1-yl)methanone]	≤ 100	> 1.5	–
O=C(c1cnn2c(-c3ccc(-c4nnn[nH]4)cc3)cccc12)N1CCCCC1 [Example 114, (7-(4-(1H-tetrazol-5-yl)phenyl)pyrazolo[1,5-a]pyridin-3-yl)(piperidin-1-yl)methanone]	≤ 100	> 1.5	–
